Target: T1, TRPC5-SYFP2 (Homo sapiens, UniProt Q9UL62)
T1 construct: expressed in transfected cells; host or cells: HEK 293 (ATCC CRL 1573), transiently transfected (jetPRIME)
T1 sequence (Q9UL62 1-973): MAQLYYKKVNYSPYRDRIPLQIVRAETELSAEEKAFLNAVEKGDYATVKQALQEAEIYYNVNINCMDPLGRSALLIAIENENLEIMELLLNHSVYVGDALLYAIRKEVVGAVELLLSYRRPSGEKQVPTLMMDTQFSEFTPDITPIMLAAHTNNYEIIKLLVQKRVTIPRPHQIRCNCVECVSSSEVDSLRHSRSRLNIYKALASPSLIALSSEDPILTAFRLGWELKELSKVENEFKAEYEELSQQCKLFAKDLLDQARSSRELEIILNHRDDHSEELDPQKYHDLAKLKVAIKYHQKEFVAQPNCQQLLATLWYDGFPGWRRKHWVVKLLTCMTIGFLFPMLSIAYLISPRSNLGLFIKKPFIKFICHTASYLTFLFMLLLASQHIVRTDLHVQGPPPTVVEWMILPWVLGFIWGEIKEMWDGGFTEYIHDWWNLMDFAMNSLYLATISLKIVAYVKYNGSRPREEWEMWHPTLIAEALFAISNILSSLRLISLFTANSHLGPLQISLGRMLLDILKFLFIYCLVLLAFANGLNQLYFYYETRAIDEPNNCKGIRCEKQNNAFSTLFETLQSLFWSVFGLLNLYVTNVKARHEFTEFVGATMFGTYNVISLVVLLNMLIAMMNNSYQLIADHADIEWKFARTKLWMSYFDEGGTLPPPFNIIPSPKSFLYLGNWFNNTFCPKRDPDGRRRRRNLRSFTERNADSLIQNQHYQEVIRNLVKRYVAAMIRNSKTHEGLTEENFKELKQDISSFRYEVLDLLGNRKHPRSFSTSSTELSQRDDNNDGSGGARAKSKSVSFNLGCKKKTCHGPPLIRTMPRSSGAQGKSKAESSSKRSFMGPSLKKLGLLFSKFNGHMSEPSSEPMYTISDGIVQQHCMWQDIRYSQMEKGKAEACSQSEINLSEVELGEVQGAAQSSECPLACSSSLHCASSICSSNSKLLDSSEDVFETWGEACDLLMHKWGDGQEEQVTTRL
Experiment: Fura-2 [Ca2+]i recordings, HEK 293 transiently expressing TRPC5-SYFP2
Type: cell-based
Conditions: 10-1000 nM; compound plate illuminated at 380 nm; EA 100 nM as maximum
Source text: Müller, Niemeyer, et al., Schaefer & Thorn-Seshold 2025: Ideal Efficacy Photoswitching of TRPC4/5 in Tissue […]
1.4.4 Differences and selectivity between TRPC5 and TRPC4?
AM237 activates TRPC5 but inhibits EA mediated activation of TRPC4; Pico145 inhibits both TRPC4 and TRPC5. Thus, somewhat naively, it could be argued that it is the para substituent here which affects both the efficacy mode and the selectivity for TRPC4 and/or TRPC5.
Intriguingly, Z-AzPico activates TRPC4 and TRPC5 with low nanomolar potency whereas Z-AzHC only activates TRPC5 but not TRPC4. Therefore, the meta substituent is now responsible for the selectivity in this case. The cryo-EM structures of Pico145 and HC-070 in complex with TRPC5 indicated the same binding site but the southern phenyl ring bearing the OCF3/Cl group is flipped and pointing in opposite directions.
Z isomers, i.e. Z-buried vs. E-projected. Additionally, both E-AzPico and E-AzHC inhibit EA […]
It is not surprising that both ligands bind to either protein because there is a high sequence similarity among the TRPC family in the identified binding pocket for Pico145 /HC-070, and in the binding region, human TRPC4/5 differ only by a single amino acid (TRPC5: V579, TRPC4: I579). We […]
the result of differences in this residue. […]
Intracellular calcium ([Ca2+]i) was measured using the ratiometric Ca2+ dye Fura-2. […]

Structure (SMILES) | Effect on [Ca2+]i, TRPC5
Cn1c(=O)n(CCCO)c(=O)c2c1nc(Oc1ccc(Cl)c(OC(F)(F)F)c1)n2Cc1ccc(Cl)cc1 [AM237, reference compound] | partial agonists
Cn1c(=O)n(CCCO)c(=O)c2c1nc(Oc1ccc(/N=N\c3ccccc3)c(Cl)c1)n2Cc1ccc(Cl)cc1 [Z*-AzHC] | partial agonists

Reference: article PMC12858405, “Ideal efficacy photoswitching for chromocontrol of TRPC4/5 channel functions in live tissues” (Nature Chemical Biology, 2026)
